# Results published in patent US20220401662A1, “ACOUSTIC NEBULISER FOR DELIVERY OF ACTIVE AGENTS” (Royal Melbourne Institute of Technology, priority 2020, published 2022).
# Test: human clinical trial of lung delivery by inhalation of [99mTc]DTPA aerosol from the nebuliser
# Assay type: in vivo
# Details: for Left lung dose / Right lung dose / Total lung dose: inhalation via described nebuliser, unadjusted
# Text: Nebulisers in accordance with the described embodiments have been subject to human clinical trials to determine efficiency of delivery of active agents to the lungs by inhalation using Technetium-99m DTPA aerosol ([^99mTc]DTPA aerosol).
substance,measurement,setting,value
Technetium-99m DTPA [[^99mTc]DTPA aerosol],Left lung dose,Volunteer 1,7.15 MBq
same,Right lung dose,Volunteer 1,8.25 MBq
same,Total lung dose,Volunteer 1,15.4 MBq
same,Left lung dose,Volunteer 2,25.2 MBq
same,Right lung dose,Volunteer 2,27.1 MBq
same,Total lung dose,Volunteer 2,52.3 MBq
same,Left lung dose,Volunteer 3,22.2 MBq
same,Right lung dose,Volunteer 3,21.9 MBq
same,Total lung dose,Volunteer 3,44.1 MBq
same,Left lung dose,Volunteer 4,23.3 MBq
same,Right lung dose,Volunteer 4,26.6 MBq
same,Total lung dose,Volunteer 4,49.9 MBq
same,efficiency of delivery to the lungs by inhalation,"human clinical trials, initial results",effective delivery of nebulised active agent to the target tissue
